Measured values taken from patent US8163727B2, “Biphenyloxyacetic acid derivatives for the treatment of respiratory disease” (AstraZeneca AB, priority 2004, dated 2012).

How the values were obtained:
CRTh2 = target: T1, CRTh2 (Homo sapiens, UniProt Q9Y5Y4); assay: Ligand binding assay ([3H]PGD2 SPA on membranes of HEK cells expressing rhCRTh2/Gα16); details: [3H]PGD2 displacement, HEK cell membranes containing CRTh2; read-out: pIC50 value (converted)
T1 construct: expressed in transfected cells; host or cells: HEK cells (membrane preparation)
T1 sequence (Q9Y5Y4 1-395): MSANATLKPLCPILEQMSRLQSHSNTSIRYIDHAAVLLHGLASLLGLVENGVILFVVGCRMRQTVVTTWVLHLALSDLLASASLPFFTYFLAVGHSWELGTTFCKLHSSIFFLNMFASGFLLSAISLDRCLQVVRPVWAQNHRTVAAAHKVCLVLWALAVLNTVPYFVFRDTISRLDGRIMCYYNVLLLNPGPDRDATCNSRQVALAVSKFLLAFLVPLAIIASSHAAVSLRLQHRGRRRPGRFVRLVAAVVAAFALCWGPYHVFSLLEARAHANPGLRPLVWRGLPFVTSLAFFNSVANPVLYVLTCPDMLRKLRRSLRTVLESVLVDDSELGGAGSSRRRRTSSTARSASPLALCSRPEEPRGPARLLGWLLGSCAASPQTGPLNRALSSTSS
Experimental: [^3H]PGD2 was purchased from Perkin Elmer Life Sciences with a specific activity of 100-210 Ci/mmol. All other chemicals were of analytical grade.
HEK cells expressing rhCRTh2/Gα16 were routinely maintained in DMEM containing 10% Foetal Bovine Serum (HyClone), 1 mg/ml geneticin, 2 mM L-glutamine and 1% non-essential amino acids. For the preparation of membranes, the adherent transfected HEKcells were grown to confluence in two layer tissue culture factories (Fisher, catalogue number TKT-170-070E). Maximal levels of receptor expression were induced by addition of […] sodium butyrate for the last 18 hours of culture. The adherent cells were washed once with phosphate buffered saline (PBS, 50 ml per cell factory) and detached by the addition of 50 ml per cell factory of ice-cold membrane homogenisation buffer [20 mM HEPES (pH 7.4), 0.1 mM dithiothreitol, 1 mM EDTA, 0.1 mM phenyl methyl sulphonyl fluoride and 100 μg/ml bacitracin]. Cells were pelleted by centrifugation at 220×g for 10 minutes at 4° C., re-suspended in half the original volume of fresh membrane homogenisation buffer and disrupted using a Polytron homogeniser for 2×20 second bursts keeping the tube in ice at all times. […] The final pellet was re-suspended in 4 ml of membrane homogenisation buffer per cell factory used and the protein content determined. […]
All assays were performed in Corning clear bottomed, white 96-well NBS plates (Fisher). […] (The optimum coating concentrations were determined for each batch of membranes) The beads were pelleted by centrifugation (800×g for 7 minutes at 4° C.), washed once with assay buffer (50 mM HEPES pH 7.4 containing 5 mM magnesium chloride) and finally re-suspended in assay buffer at a bead concentration of 10 mg/ml. […]
Compounds and DK-PGD2 were dissolved in DMSO and diluted in the same solvent to 100× the required final concentration. […] The assay plate was incubated at room temperature for 2 hours and counted on a Wallac Microbeta liquid scintillation counter (1 minute per well).

SMILES | IC50 (CRTh2) [nM] | melting point [°C]
C[C@H](Oc1ccc(Cl)cc1-c1cc(F)c(S(=O)(=O)N2CCOCC2)cc1F)C(=O)O [Example 5] | 1.78 | –
CC(C)S(=O)(=O)c1ccc(-c2cc(C(F)(F)F)ccc2OCC(=O)O)cc1F [Example 6, [[3′-Fluoro-4′-[(1-methylethyl)sulfonyl]-5-(trifluoromethyl)[1,1′-biphenyl]-2-yl]oxy]acetic acid] | – | 170 to 171
CCS(=O)(=O)c1ccc(-c2cc(C(F)(F)F)ccc2OCC(=O)O)cc1C(F)(F)F [Example 9, [[4′-(Ethylsulfonyl)-3′,5-bis(trifluoromethyl)[1,1′-biphenyl]-2-yl]oxy]acetic acid] | – | 174 to 175
CCS(=O)(=O)c1ccc(-c2cc(C(F)(F)F)ccc2O[C@@H](C)C(=O)O)cc1C(F)(F)F [Example 10, (2S)-2-[[4′-(Ethylsulfonyl)-3′,5-bis(trifluoromethyl)[1,1′-biphenyl]-2-yl]oxy]propanoic acid] | – | 124 to 126
O=C(O)COc1ccc(Cl)cc1-c1ccc(S(=O)(=O)N2CCOCC2)c(C(F)(F)F)c1 [Example 11] | 35.5 | 208 to 209
C[C@H](Oc1ccc(Cl)cc1-c1ccc(S(=O)(=O)N2CCOCC2)c(C(F)(F)F)c1)C(=O)O [Example 12, (2S)-2-[[5-Chloro-4′-(4-morpholinylsulfonyl)-3′-(trifluoromethyl)[1,1′-biphenyl]-2-yl]oxy]propanoic acid] | – | 148 to 149
O=C(O)COc1ccc(Cl)cc1-c1ccc(C(=O)N2CCCC2)c(C(F)(F)F)c1 [Example 13, [[5-Chloro-4′(1-pyrrolidinylcarbonyl)-3′-(trifluoromethyl)[1,1′-biphenyl]-2-yl]oxy]-acetic acid] | 7.08 | 197 to 198
C[C@H](Oc1ccc(Cl)cc1-c1ccc(C(=O)N2CCCC2)c(C(F)(F)F)c1)C(=O)O [Example 14, (2S)-2-[[5-Chloro-4′-(1-pyrrolidinylcarbonyl)-3′-(trifluoromethyl)[1,1′-biphenyl]-2-yl]oxy]propanoic acid] | – | 164 to 165
C[C@H](Oc1ccc(Cl)cc1-c1ccc(S(C)(=O)=O)c(C(F)(F)F)c1)C(=O)O [Example 16, (2S)-2-[[5-Chloro-4′-(methylsulfonyl)-(3′-trifluoromethyl)-[1,1′-biphenyl]-2-yl]oxy]propanoic acid] | – | 77 to 79
